The values below come from patent US9382208B1, “Negative allosteric modulators of metabotropic glutamate receptor 2” (Vanderbilt University, priority 2015, dated 2016).

The target of the experiment is T1, rat mGlu2 (Rattus norvegicus, UniProt P31421).
T1 construct: expressed in transfected cells
The experiment is described as follows: mGlu2 Ca2+ flux assay. Particulars: for remaining activity at 30 µM: amplitude of response in the presence of 30 μM test compound as percentage of maximal response to glutamate, read-out: rat mGlu2 Glu max (%). The format is cell-based. An outline of the steps: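 Gα15 HEK293 cells stably expressing rat mGlu2, Fluo-4 loaded; compound added, then glutamate at EC20 after 2.3 min and EC80 afterward, calcium flux read as F/F0. Peak amplitude around EC80 addition normalized to glutamate max; IC50 by unconstrained 4-parameter fit, top concentration 30 μM.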
Background: Calcium assays in cells follow changes in intracellular calcium, usually with a dye or a luminescent sensor.

[1] abbreviates: Gα15 HEK293 cells stably expressing rat mGlu2, glutamate EC80 addition, read-out: rat mGlu2 IC50.

As usually defined, the IC50 is the concentration that gives 50% inhibition.

SMILES strings stand for the structures. Where two headings read alike, the source gives them in different places.

T1 sequence (P31421 19-872): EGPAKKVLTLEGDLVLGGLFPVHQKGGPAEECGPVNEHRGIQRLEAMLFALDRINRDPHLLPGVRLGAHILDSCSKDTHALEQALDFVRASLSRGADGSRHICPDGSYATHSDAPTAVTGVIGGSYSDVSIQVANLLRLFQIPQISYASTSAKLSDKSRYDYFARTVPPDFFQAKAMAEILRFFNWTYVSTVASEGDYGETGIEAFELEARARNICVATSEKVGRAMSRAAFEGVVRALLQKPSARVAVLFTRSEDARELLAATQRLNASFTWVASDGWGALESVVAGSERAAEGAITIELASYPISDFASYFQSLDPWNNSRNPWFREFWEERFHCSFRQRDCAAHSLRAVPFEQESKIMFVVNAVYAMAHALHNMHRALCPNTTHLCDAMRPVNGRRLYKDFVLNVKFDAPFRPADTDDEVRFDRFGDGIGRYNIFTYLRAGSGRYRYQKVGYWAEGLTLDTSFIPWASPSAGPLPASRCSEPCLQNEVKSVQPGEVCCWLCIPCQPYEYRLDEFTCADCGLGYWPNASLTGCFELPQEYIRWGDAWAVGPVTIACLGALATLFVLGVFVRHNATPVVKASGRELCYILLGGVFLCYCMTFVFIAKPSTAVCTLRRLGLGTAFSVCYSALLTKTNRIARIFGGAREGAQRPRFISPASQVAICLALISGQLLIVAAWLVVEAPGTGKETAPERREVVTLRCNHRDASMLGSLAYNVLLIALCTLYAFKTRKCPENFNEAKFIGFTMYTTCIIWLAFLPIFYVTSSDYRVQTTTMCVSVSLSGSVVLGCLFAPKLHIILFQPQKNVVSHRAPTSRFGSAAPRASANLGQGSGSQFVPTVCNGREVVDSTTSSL

For `Cc1cccc(CCc2ccc3c(c2)c(=O)c(C(N)=O)cn3-c2ccc(F)cc2)c1` [Compound 7, 1-(4-fluorophenyl)-6-(3-methylphenethyl)-4-oxo-1,4-dihydroquinoline-3-carboxamide], the remaining activity at 30 µM worked out at 42.1%. For the same molecule, the IC50 under setting [1] was above 10000 nM.

In the case of `CC1CN(Cc2cc(F)c3c(c2)c(=O)c(C(N)=O)cn3-c2ccc(F)cc2)CCO1` (centres unmarked) [Compound 93, 8-fluoro-1-(4-fluorophenyl)-6-((2-methylmorpholino)methyl)-4-oxo-1,4-dihydroquinoline-3-carboxamide], the remaining activity at 30 µM is 0.14%. Moreover, the IC50 under setting [1] came to 6520 nM.

As for `NC(=O)c1cn(-c2ccc(F)cc2)c2ccc(Oc3ccc(F)nc3)cc2c1=O` [Compound 58, 1-(4-fluorophenyl)-6-((6-fluoropyridin-3-yl)oxy)-4-oxo-1,4-dihydroquinoline-3-carboxamide], the remaining activity at 30 µM was 1.18%. Also, the IC50 under setting [1] turned out to be 1360 nM.

As to `Cc1ccccc1CCc1ccc2c(c1)c(=O)c(C(N)=O)cn2-c1ccc(F)cc1` [Compound 8, 1-(4-fluorophenyl)-6-(2-methylphenethyl)-4-oxo-1,4-dihydroquinoline-3-carboxamide], the remaining activity at 30 µM turned out to be 18.7%. Also, the IC50 under setting [1] was above 10000 nM.

Turning to `NC(=O)c1cn(-c2ccc(F)cc2)c2ccc(COc3ccc(Cl)nc3)cc2c1=O` [Compound 37, 6-(((6-chloropyridin-3-yl)oxy)methyl)-1-(4-fluorophenyl)-4-oxo-1,4-dihydroquinoline-3-carboxamide], the remaining activity at 30 µM was 1.7 ± 0.12%. Besides, the IC50 under setting [1] was 203 ± 42 nM.

As to `NC(=O)c1cn(-c2ccc(F)cc2)c2ccc(COc3cccnc3F)cc2c1=O` [Compound 39, 1-(4-fluorophenyl)-6-(((2-fluoropyridin-3-yl)oxy)methyl)-4-oxo-1,4-dihydroquinoline-3-carboxamide], the remaining activity at 30 µM was 0.83%. The IC50 under setting [1] came to 883 nM.

As to `Cc1cc(COc2ccc3c(c2)c(=O)c(C(N)=O)cn3-c2ccc(F)cc2)ccn1` [Compound 24, 1-(4-fluorophenyl)-6-((2-methylpyridin-4-yl)methoxy)-4-oxo-1,4-dihydroquinoline-3-carboxamide], the remaining activity at 30 µM is 1.09 ± 0.16%. In addition, the IC50 under setting [1] came to 422 ± 94 nM.

Consider `NC(=O)c1cn(-c2ccc(F)cc2)c2ccc(NCCc3ccncc3)cc2c1=O` [Compound 26, 1-(4-fluorophenyl)-4-oxo-6-((2-(pyridin-4-yl)ethyl)amino)-1,4-dihydroquinoline-3-carboxamide], for which the remaining activity at 30 µM is 1.91%. Also, the IC50 under setting [1] came to 444 nM.

For `Cc1ncc(CCc2ccc3c(c2)c(=O)c(C(N)=O)cn3-c2ccc(F)cc2)cn1` [Compound 1, 1-(4-Fluorophenyl)-6-(2-(2-methylpyrimidin-5-yl)ethyl)-4-oxo-1,4-dihydroquinoline-3-carboxamide], the remaining activity at 30 µM came to 1.52 ± 0.26%. For the same molecule, the IC50 under setting [1] was 227 ± 55 nM.

In the case of `Cc1cc(OCc2ccc3c(c2)c(=O)c(C(N)=O)cn3-c2ccc(F)cc2)ccn1` [Compound 33, 1-(4-fluorophenyl)-6-(((2-methylpyridin-4-yl)oxy)methyl)-4-oxo-1,4-dihydroquinoline-3-carboxamide], the remaining activity at 30 µM came out at 2.18%. For the same molecule, the IC50 under setting [1] turned out to be 421 nM.

As to `CN(Cc1ccc2c(c1)c(=O)c(C(N)=O)cn2-c1ccc(F)cc1)C1CC(F)(F)C1` [Compound 80, 6-(((3,3-difluorocyclobutyl)(methyl)amino)methyl)-1-(4-fluorophenyl)-4-oxo-1,4-dihydroquinoline-3-carboxamide], the remaining activity at 30 µM was 1.03%. Moreover, the IC50 under setting [1] was 397 nM.

For `C[C@H]1CN(Cc2ccc3c(c2)c(=O)c(C(N)=O)cn3-c2ccc(F)cc2)CCO1` [Compound 88, (S)-1-(4-fluorophenyl)-6-((2-methylmorpholino)methyl)-4-oxo-1,4-dihydroquinoline-3-carboxamide], the remaining activity at 30 µM was found to be 1.36%. Moreover, the IC50 under setting [1] came out at 724 nM.

On to `NC(=O)c1cn(-c2ccc(F)cc2)c2ccc(N3CCCC3c3cccnc3)cc2c1=O` (centres unmarked) [Compound 40, 1-(4-fluorophenyl)-4-oxo-6-(2-(pyridin-3-yl)pyrrolidin-1-yl)-1,4-dihydroquinoline-3-carboxamide], for which the remaining activity at 30 µM amounted to 1.81%. Moreover, the IC50 under setting [1] was 429 nM.

In the case of `CN(Cc1cccnc1)c1ccc2c(c1)c(=O)c(C#N)cn2-c1ccc(F)cc1` [Compound 96, 1-(4-Fluorophenyl)-6-(methyl(pyridin-3-ylmethyl)amino)-4-oxo-1,4-dihydroquinoline-3-carbonitrile], inhibition was half-maximal at 3160 nM (IC50) and the remaining activity at 30 µM was found to be 3.44%.

`NC(=O)c1cn(-c2ccc(F)cc2)c2ccc(CN3CCN(C4CC4)CC3)cc2c1=O` [Compound 66, 6-((4-cyclopropylpiperazin-1-yl)methyl)-1-(4-fluorophenyl)-4-oxo-1,4-dihydroquinoline-3-carboxamide]: the remaining activity at 30 µM was found to be 1.89%. The IC50 under setting [1] is 1290 nM.

Regarding `C[C@@H]1CN(Cc2ccc3c(c2)c(=O)c(C(N)=O)cn3-c2ccc(F)cc2)C[C@H](C)O1` [Compound 64, 6-((cis-2,6-Dimethylmorpholino)methyl)-1-(4-fluorophenyl)-4-oxo-1,4-dihydroquinoline-3-carboxamide], the remaining activity at 30 µM came out at 1.42 ± 0.51%. Also, the IC50 under setting [1] came out at 222 ± 36 nM.

As for `CCN(Cc1cccnc1)c1ccc2c(c1)c(=O)c(C(N)=O)cn2-c1ccc(F)cc1` [Compound 42, 6-(ethyl(pyridin-3-ylmethyl)amino)-1-(4-fluorophenyl)-4-oxo-1,4-dihydroquinoline-3-carboxamide], the remaining activity at 30 µM stood at 2.57%. Further, under setting [1], the IC50 was 167 nM.

With `NC(=O)c1cn(-c2ccc(F)cc2)c2ccc(CN3CCCOCC3)cc2c1=O` [Compound 72, 6-((1,4-oxazepan-4-yl)methyl)-1-(4-fluorophenyl)-4-oxo-1,4-dihydroquinoline-3-carboxamide], the remaining activity at 30 µM is 29.6%. The IC50 under setting [1] is above 10000 nM.

As to `NC(=O)c1cn(-c2ccc(F)cc2)c2ccc(CN3CCC(F)(F)CC3)cc2c1=O` [Compound 78, 6-((4,4-difluoropiperidin-1-yl)methyl)-1-(4-fluorophenyl)-4-oxo-1,4-dihydroquinoline-3-carboxamide], the remaining activity at 30 µM was 1.59 ± 0.27%. Further, the concentration for half-maximal inhibition (IC50) under setting [1] was 197 ± 91 nM.

Regarding `CS(=O)(=O)C1CCN(Cc2ccc3c(c2)c(=O)c(C(N)=O)cn3-c2ccc(F)cc2)CC1` [Compound 76, 1-(4-fluorophenyl)-6-((4-(methylsulfonyl)piperidin-1-yl)methyl)-4-oxo-1,4-dihydroquinoline-3-carboxamide], the remaining activity at 30 µM is 1.29%. Also, the IC50 under setting [1] was determined as 1120 nM.

In the case of `NC(=O)c1cn(-c2ccc(F)cc2)c2ccc(CCc3cccnc3)cc2c1=O` [Compound 10, 1-(4-fluorophenyl)-4-oxo-6-(2-(pyridin-3-yl)ethyl)-1,4-dihydroquinoline-3-carboxamide], the remaining activity at 30 µM stood at 1.9 ± 0.11%. For the same molecule, the IC50 under setting [1] came to 482 ± 87 nM.

For `N#CC1CCN(Cc2ccc3c(c2)c(=O)c(C(N)=O)cn3-c2ccc(F)cc2)CC1` [Compound 75, 6-((4-cyanopiperidin-1-yl)methyl)-1-(4-fluorophenyl)-4-oxo-1,4-dihydroquinoline-3-carboxamide], the remaining activity at 30 µM was 1.02%. Also, the IC50 under setting [1] stood at 735 nM.
